Structures can show the parent of a compound that is named as a salt.
Experiments:
NB4 cell line = experiment: WST-1 viability assay, fatty acids dissolved in DMSO; type: cell-based; conditions: 48 hours
Experimental: NB4 cells at a concentration of 0.1×10^5 cells/mL were incubated with 37.5, 75, 150 and 300 μM of TTA, 2-tr-TTA and PA dissolved in DMSO for 48 hours. Cell viability was assessed with WST-1 assay after 4 hours of incubation, and the absorption was related to the DMSO-control. Cell viability is presented as percentage of DMSO-control (100%). The assay was performed with triplicates for each concentration of the individual SBFA and the result is presented as mean of the triplicates±SD, n=1.
(§1) As a preliminary test, NB4 was exposed to TTA, 2-tr-TTA and PA dissolved in DMSO in concentrations between 37.5 to 300 μM for 48 hours. […] It was decided to not try higher concentrations of TTA PA and 2-tr-TTA dissolved in DMSO because of DMSO's cellular toxicity. In this project, one aim was to compare TTA with N-TTA and 2-tr-N-TTA. […] Compared to DMSO-control there was no significant decrease in cell viability after treatment with B SFAs dissolved in DMSO (p>0.05).

Solubility in solvents = type: physicochemical
Experimental: Hydrogenated egg phosphatidylcholine (HEPC), cholesterol (CHO) and fatty acid compound (PA, N-TTA and TTA) were weighed out separately and dissolved in chloroform. N-TTA is not soluble in chloroform alone and was therefore dissolved in a 1:1 mixture of methanol and chloroform. The dissolved lipids were mixed in a molar ratio of 1.81 HEPC:1CHO and 0.5-2 PA/N-TTA/TTA in a 100 or 250 mL Duran round bottom flasks. Next, a thin lipid film was made by slowly evaporating the solvents by using Laborota 4000 rotary evaporator at light vacuum, 200 mbar, and 60 rpm for 1.5-2.5 hours depending on the volume of solvents. To ensure a solvent-free lipid film, full vacuum (0 mbar) was applied the last 30 minutes.
as §1

| SMILES | cell viability (percentage of DMSO-control), WST-1 (NB4 cell line; NB4, 37.5-300 μM dissolved in DMSO, n=1, p>0.05) | metabolic activity (WST-1), trend as presented in FIG. 1 (NB4 cell line; NB4, 37.5-300 μM in DMSO, stimulating effect especially at 75 μM) | solubility in DMSO (Solubility in solvents) | solubility in chloroform (Solubility in solvents; chloroform alone, dissolved in 1:1 methanol and chloroform) |
| --- | --- | --- | --- | --- |
| CC#CCCCCCCCCCCCSCC(=O)O [2-tr-TTA, 2-(Tetradec-12-yn-1-ylthio)acetic acid] | lack of significant antiproliferative effect | stimulating effect |  |  |
| CC#CCCCCCCCCCCCNCC(=O)O [2-trN-TTA, Tetradec-12-yn-1-ylglycine hydrochloride] |  |  | seemingly insoluble |  |
| CCCCCCCCCCCCCCNCC(=O)O [N-TTA, N-tetradecylglycine] |  |  | seemingly insoluble | not soluble |
